In paper PMC11823594, “Durlobactam in combination with β-lactams to combat Mycobacterium abscessus” (Antimicrobial Agents and Chemotherapy, 2024):
pKi: −log10 of the molar value. ≈ marks a conversion by molar mass, not a printed value. Where two headings read alike, the source gives them in different places.

How the values were obtained:
Mab ATCC 19977 strain = test: MIC testing (CLSI, Middlebrook 7H9 broth); format: cell-based, Mycobacterium abscessus; conditions: for MIC: Mycobacteroides abscessus, ATCC19977, Mab ATCC 19977, no BLI added, 30°C, 48 h, read-out: MIC, alone; for MIC, + DUR + SUL (1:1): durlobactam, sulbactam and test β-lactam all at the same concentration; for MIC, + AVI (4 mg/L): fixed avibactam 4 mg/L; for MIC, + DUR + SUL (1 mg/L): fixed durlobactam 1 mg/L + sulbactam 1 mg/L
PBP B [1] = target: T1, PBP B (Mycobacterium abscessus, UniProt B1MP31); test: Mass spectrometry of covalent adduct formation; format: binding; conditions: protein:drug 1:20, 2 h; mass accuracy ±5 Da; (−) = no change
Procedure: Truncated sequences of LDT1-5, DDC, PBP B, and PBP-lipo (Δ1–41) were generated by Celtek Biosciences and cloned into the pET28(a) + vector with a tobacco etch virus (TEV) protease cleavage site before the start codon. Clones were transformed into Escherichia coli BL21 (DE3) and grown to an OD600 of 0.6–0.8. […] Cell pellets were collected and stored at −20°C overnight, then resuspended in a buffer containing 50 mM Tris (pH 8.0), 400 mM sodium chloride, and 1 mM Tris (2-carboxyethyl) phosphine hydrochloride (TCEP), followed by sonication and centrifugation. The supernatant was purified using a His Prep FF 16/10 column (GE Healthcare) and eluted with 500 mM imidazole. Eluted protein was dialyzed overnight at 4°C in a buffer with 50 mM Tris (pH 8.0), 150 mM sodium chloride, and 0.5 mM TCEP in the presence of His-tagged TEV protease. To remove the His tag, the mixture was passed over the His Prep FF 16/10 column again.
The purified proteins listed above were incubated at room temperature with β-lactams or BLIs at a molar ratio of 1:20 for 2 h. The reactions were then quenched with acetonitrile and diluted to 1 mL with 0.1% formic acid in water. Samples were analyzed using a quadrupole time-of-flight (Q-TOF) Waters Synapt-G2-Si electrospray ionization mass spectrometer (ESI-MS) and a Waters Acquity H class ultra-performance liquid chromatography (UPLC) system, equipped with a BEH C18 1.7 µm column (2.1 × 50 mm). The MS was tuned with the following settings: capillary voltage set at 3 kV, sampling cone at 35 V, source offset at 35, source temperature of 100°C, desolvation temperature of 500°C, cone gas flow rate at 100 L/h, desolvation gas flow rate at 800 L/h, and nebulizer set at 6.0. The mobile phases consisted of 0.1% formic acid in water and 0.1% formic acid in 100% acetonitrile, with gradient elution from 10% to 90% of […] over 11 min. The system’s mass accuracy was ±5 Da.

PBP-lipo = target: T2, PBP-lipo (Mycobacteroides abscessus, UniProt B1MDC3); test: Steady-state kinetics with nitrocefin (Ki,app); format: biochemical; conditions: for Ratio of fCss,avg to Ki,app, PBP-lipo: in parentheses in Table 3; for Ki: nitrocefin at 5 × Km, read-out: Ki,app PBP-lipo (converted)
T2 construct: made in house; host or cells: Escherichia coli BL21 (DE3)
Procedure: (§1) Steady-state kinetic studies were conducted using purified LDTs and PBPs (LDT1-5, PBP B, PBP-lipo, and DDC) as previously described ([20]). The assays were performed using a BioTek Synergy2 multimode reader in conjunction with Gen5 analysis software. Increasing concentrations of NCF (Δε482 = 17,400 M^⁻¹ cm^⁻¹) were used, while fixed concentrations of the LDTs and PBPs were monitored for changes in absorbance at 482 nm over a time period of 0 to 10 min. To determine reaction velocities, a 0.25 cm path length was employed. The steady-state kinetic parameters (Vmax, kcat, and Km) were obtained by fitting the data to the Henri-Michaelis-Menten equation using a nonlinear least-squares fit in Origin 8.1 software (OriginLab, Northampton, MA). The reaction rate (v) at a given substrate concentration ([S]) was calculated according to the following equations: […]
To determine the apparent inhibition constants (Ki,app) for β-lactams and BLIs, the following experimental condition was employed: NCF as a substrate at a concentration of 5 × Km, LDT/ PBP enzymes with fixed concentration, and β-lactams and BLIs with various concentrations. Changes in absorbance at 482 nm were measured over a period of 0–30 min for each concentration of β-lactams and BLIs. Data were linearized using a Dixon plot, plotting the inverse changes in absorbance (1/ΔA) against the concentrations of β-lactams and BLIs. The observed Ki,app was determined directly from the Dixon plot, and these values were corrected for substrate concentration and affinity for the LDT using the following equation:
(§2) Ki,app=observed Ki,app/1+[NCF]/Km NCF

DDC = DDC (Mycobacteroides abscessus, UniProt B1MDJ1); test: Steady-state kinetics with nitrocefin (Ki,app); format: biochemical; conditions: in parentheses in Table 3;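 note: Parenthesised value is the fCss,avg to Ki,app ratio where above 1 means target likely hit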
Procedure: as §1, with “Increasing concentrations of NCF (Δε482 = 17,400 M^⁻¹ cm^⁻¹) were used, while fixed concentrations of the LDTs and PBPs were monitored for changes in absorbance at 482 nm over a time period of 0 to 10 min.” left out
(§3) Changes in absorbance at 482 nm were measured over a period of 0–30 min for each concentration of β-lactams and BLIs. Data were linearized using a Dixon plot, plotting the inverse changes in absorbance (1/ΔA) against the concentrations of β-lactams and BLIs. The observed Ki,app was determined directly from the Dixon plot, and these values were corrected for substrate concentration and affinity for the LDT using the following equation:
as §2

PBP B [2] = target: T1, PBP B; test: Steady-state kinetics with nitrocefin (Ki,app); format: biochemical; conditions: for Ratio of fCss,avg to Ki,app, PBP B: in parentheses in Table 3; for Ki: read-out: Ki,app PBP B (converted);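 for Ratio of fCss,avg to Ki,app, PBP B: Parenthesised value is the fCss,avg to Ki,app ratio where above 1 means target likely hit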
Procedure: as §1, with “Increasing concentrations of NCF (Δε482 = 17,400 M^⁻¹ cm^⁻¹) were used, while fixed concentrations of the LDTs and PBPs were monitored for changes in absorbance at 482 nm over a time period of 0 to 10 min.” left out
as §3, §2

[3] = Predicted average unbound steady-state plasma concentration (fCss,avg) at clinically relevant doses; set-up: species or system human; conditions: median unbound average steady-state plasma concentration, continuous infusion; daily dose DUR 4,000, AVI 1,500, IPM 4,000, CFT 1,800, AMX 1,500, SULO 1,000, CXM 1,500, SUL 4,000, TBP 1,800 mg

T1 sequence (B1MP31 entry or part of it): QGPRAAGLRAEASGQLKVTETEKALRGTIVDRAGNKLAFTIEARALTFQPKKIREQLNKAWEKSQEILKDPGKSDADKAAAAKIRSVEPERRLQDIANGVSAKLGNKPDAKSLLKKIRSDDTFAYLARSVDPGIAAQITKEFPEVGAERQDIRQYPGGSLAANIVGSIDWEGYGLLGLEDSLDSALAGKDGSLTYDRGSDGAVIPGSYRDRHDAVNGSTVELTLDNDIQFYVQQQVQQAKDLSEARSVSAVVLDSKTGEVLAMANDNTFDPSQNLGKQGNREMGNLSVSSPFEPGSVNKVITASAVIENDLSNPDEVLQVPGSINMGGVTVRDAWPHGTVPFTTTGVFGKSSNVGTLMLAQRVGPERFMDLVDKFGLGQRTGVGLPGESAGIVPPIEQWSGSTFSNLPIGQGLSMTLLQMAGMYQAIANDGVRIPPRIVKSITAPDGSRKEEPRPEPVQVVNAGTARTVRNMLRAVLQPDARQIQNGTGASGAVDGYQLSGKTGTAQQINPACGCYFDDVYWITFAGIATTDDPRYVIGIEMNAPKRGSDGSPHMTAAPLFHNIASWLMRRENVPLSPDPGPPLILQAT
DDC, sequence (B1MDJ1 entry or part of it): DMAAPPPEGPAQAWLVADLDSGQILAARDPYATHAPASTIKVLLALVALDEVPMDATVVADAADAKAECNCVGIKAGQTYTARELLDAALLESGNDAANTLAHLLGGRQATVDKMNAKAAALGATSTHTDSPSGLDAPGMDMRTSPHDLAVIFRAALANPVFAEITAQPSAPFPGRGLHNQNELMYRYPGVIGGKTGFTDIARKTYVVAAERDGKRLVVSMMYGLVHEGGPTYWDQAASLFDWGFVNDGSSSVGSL
T2 sequence (B1MDC3 entry or part of it): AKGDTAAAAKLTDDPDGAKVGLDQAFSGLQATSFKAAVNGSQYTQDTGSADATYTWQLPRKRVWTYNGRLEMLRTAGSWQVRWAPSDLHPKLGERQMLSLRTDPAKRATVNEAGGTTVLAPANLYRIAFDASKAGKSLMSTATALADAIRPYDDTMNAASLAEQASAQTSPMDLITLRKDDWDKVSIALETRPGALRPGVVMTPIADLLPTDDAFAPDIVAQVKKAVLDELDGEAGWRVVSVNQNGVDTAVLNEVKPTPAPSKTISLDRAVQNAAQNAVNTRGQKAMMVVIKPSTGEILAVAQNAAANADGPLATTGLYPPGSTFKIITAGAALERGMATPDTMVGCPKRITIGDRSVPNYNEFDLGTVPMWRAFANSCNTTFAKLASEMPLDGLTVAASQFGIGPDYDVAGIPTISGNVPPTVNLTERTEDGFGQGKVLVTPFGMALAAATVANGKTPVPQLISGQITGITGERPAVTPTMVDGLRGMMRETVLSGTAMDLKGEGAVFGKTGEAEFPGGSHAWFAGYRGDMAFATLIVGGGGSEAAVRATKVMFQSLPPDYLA

C[C@@H](O)[C@H]1C(=O)N2C(C(=O)O)=C(S[C@H]3CC[S@@+]([O-])C3)S[C@H]12 [Sulopenem, sulopenem]
MIC (Mab ATCC 19977 strain): 1 µg/mL (≈ 2.86 µM) | MIC, + DUR + SUL (1:1) (Mab ATCC 19977 strain): 0.25 µg/mL | MIC, + AVI (4 mg/L) (Mab ATCC 19977 strain): 0.5 µg/mL | MIC, + DUR + SUL (1 mg/L) (Mab ATCC 19977 strain): 1 µg/mL | Observed MW (+ change in mw), PBP B (62,915) (PBP B [1]): 63,264 (+349) Da | Ratio of fCss,avg to Ki,app, PBP-lipo (PBP-lipo): 25 | Ki (PBP-lipo): 0.229 µM | Ratio of fCss,avg to Ki,app, DDC (DDC): 0.1 | Ratio of fCss,avg to Ki,app, PBP B (PBP B [2]): 0.7 | Ki (PBP B [2]; nitrocefin at 5 × Km): 8.3 µM | fCss,avg [3]: 2 mg/L

C[C@@H](O)[C@H]1C(=O)N2C(C(=O)O)=C(SCCN=CN)C[C@H]12 [Imipenem, imipenem]
MIC (Mab ATCC 19977 strain): 8 µg/mL (≈ 26.7 µM) | MIC, + DUR + SUL (1:1) (Mab ATCC 19977 strain): 2 µg/mL | MIC, + AVI (4 mg/L) (Mab ATCC 19977 strain): 4 µg/mL | MIC, + DUR + SUL (1 mg/L) (Mab ATCC 19977 strain): 4 µg/mL | Observed MW (+ change in mw), PBP B (62,915) (PBP B [1]): 63,215 (+300) Da | Ratio of fCss,avg to Ki,app, PBP-lipo (PBP-lipo): 22 | Ki (PBP-lipo): 2 µM | Ratio of fCss,avg to Ki,app, DDC (DDC): 1.3 (9) | Ratio of fCss,avg to Ki,app, PBP B (PBP B [2]): 0.4 (27) | Ki (PBP B [2]): 1.34 µM | fCss,avg [3]: 12 mg/L

CC1=C[C@@H]2CN(C(=O)N2OS(=O)(=O)O)[C@@H]1C(N)=O [Durlobactam, durlobactam]
Observed MW (+ change in mw), PBP B (62,915) (PBP B [1]): 63192 (+277) Da | Ratio of fCss,avg to Ki,app, PBP-lipo (PBP-lipo): 133 | Ki (PBP-lipo): 0.361 µM | Ratio of fCss,avg to Ki,app, DDC (DDC): 1.6 | Ratio of fCss,avg to Ki,app, PBP B (PBP B [2]): 1 | Ki (PBP B [2]; nitrocefin at 5 × Km): 57.7 µM | fCss,avg [3]: 16 mg/L

CO/N=C(\C(=O)N[C@@H]1C(=O)N2C(C(=O)O)=C(COC(N)=O)CS[C@H]12)c1ccco1 [Cefuroxime, cefuroxime]
MIC (Mab ATCC 19977 strain): 4 µg/mL (≈ 9.43 µM) | MIC, + DUR + SUL (1:1) (Mab ATCC 19977 strain): 1 µg/mL | MIC, + AVI (4 mg/L) (Mab ATCC 19977 strain): 4 µg/mL | MIC, + DUR + SUL (1 mg/L) (Mab ATCC 19977 strain): 2 µg/mL | Observed MW (+ change in mw), PBP B (62,915) (PBP B [1]): 63,279 (+364) Da | Ratio of fCss,avg to Ki,app, PBP-lipo (PBP-lipo): 0.5 | Ki (PBP-lipo): 51.8 µM | Ratio of fCss,avg to Ki,app, DDC (DDC): 0.05 (240) | Ratio of fCss,avg to Ki,app, PBP B (PBP B [2]): 3 (4) | Ki (PBP B [2]): 7.07 µM | fCss,avg [3]: 12 mg/L

CC1(C)S[C@@H]2[C@H](NC(=O)[C@H](N)c3ccc(O)cc3)C(=O)N2[C@H]1C(=O)O [Amoxicillin, amoxicillin]
MIC (Mab ATCC 19977 strain): 128 µg/mL (≈ 350 µM) | MIC, + DUR + SUL (1:1) (Mab ATCC 19977 strain): 1 µg/mL | MIC, + AVI (4 mg/L) (Mab ATCC 19977 strain): 32 µg/mL | MIC, + DUR + SUL (1 mg/L) (Mab ATCC 19977 strain): 1 µg/mL | Observed MW (+ change in mw), PBP B (62,915) (PBP B [1]): 63,280 (+365) Da | Ki (PBP-lipo): 0.274 µM | pKi (PBP B [2]): 5.13 | fCss,avg [3]: 6 mg/L

NC(=O)[C@@H]1CC[C@@H]2CN1C(=O)N2OS(=O)(=O)O [Avibactam, avibactam]
MIC (Mab ATCC 19977 strain): > 128 µg/mL | Observed MW (+ change in mw), PBP B (62,915) (PBP B [1]): 63,180 (+265) Da | Ratio of fCss,avg to Ki,app, PBP-lipo (PBP-lipo): 1 | Ki (PBP-lipo): 18.9 µM | Ratio of fCss,avg to Ki,app, DDC (DDC): 0.1 | Ratio of fCss,avg to Ki,app, PBP B (PBP B [2]): 0.6 | Ki (PBP B [2]; nitrocefin at 5 × Km): 33.9 µM | fCss,avg [3]: 5 mg/L

C[C@@H](O)[C@H]1C(=O)N2C(C(=O)O)=C(SC3CN(C4=NCCS4)C3)[C@H](C)[C@H]12 [Tebipenem, tebipenem]
MIC (Mab ATCC 19977 strain): 8 µg/mL (≈ 20.9 µM) | MIC, + DUR + SUL (1:1) (Mab ATCC 19977 strain): 1 µg/mL | MIC, + AVI (4 mg/L) (Mab ATCC 19977 strain): 2 µg/mL | MIC, + DUR + SUL (1 mg/L) (Mab ATCC 19977 strain): 1 µg/mL | Ratio of fCss,avg to Ki,app, PBP-lipo (PBP-lipo): 0.05 | Ki (PBP-lipo): 88.7 µM | Ratio of fCss,avg to Ki,app, DDC (DDC): 0.01 | Ratio of fCss,avg to Ki,app, PBP B (PBP B [2]): 243 | Ki (PBP B [2]; nitrocefin at 5 × Km): 0.0183 µM | fCss,avg [3]: 1.7 mg/L
